#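 Each compound was tested at five concentrations against cells in 96-well plates for 48 hours. Abbreviation: GI50, concentration required for 50% inhibition of growth.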 The source made the active and inactive calls. Cut-off read from the data, not from the text of the source: active = GI50 up to about 1.1 µM and inactive = higher.
# Columns and labels:
# Test in all cases: NCI tumour cell line growth inhibition, 48 h
# HOP-18 = system: HOP-18
# SNB-19 = system: SNB-19
# KM12 = system: KM12
# OVCAR-8 = system: OVCAR-8
# U-251 = system: U-251
# SK-MEL-2 = system: SK-MEL-2
# HOP-92 = system: HOP-92
# CCRF-CEM = system: CCRF-CEM
# HCC 2998 = system: HCC 2998
# NCI-H460 = system: NCI-H460
# KM-20L2 = system: KM-20L2
# SF-539 = system: SF-539
# OVCAR-5 = system: OVCAR-5
# MOLT-4 = system: MOLT-4
# DMS-114 = system: DMS-114
# COLO 205 = system: COLO 205
# MCF7 = system: MCF7
# XF498 = system: XF498
# K562 = system: K562
# OVCAR-3 = system: OVCAR-3
# IGROV-1 = system: IGROV-1
# SNB-75 = system: SNB-75
# RXF 393 = system: RXF 393
# SN12C = system: SN12C
# HCT-15 = system: HCT-15
# SF-268 = system: SF-268
# HCT-116 = system: HCT-116
# M19-MEL = system: M19-MEL
# HT-29 = system: HT-29
# DMS-273 = system: DMS-273
# RPMI-8226 = system: RPMI-8226
# SF-295 = system: SF-295
# OVCAR-4 = system: OVCAR-4
# CAKI-1 = system: CAKI-1
# HL-60 = system: HL-60
# SW-620 = system: SW-620
# SNB-78 = system: SNB-78
# DLD-1 = system: DLD-1
# NCI-H23 = system: NCI-H23
# SK-MEL-28 = system: SK-MEL-28
# NCI/ADR-RES = system: NCI/ADR-RES
# NCI-H226 = system: NCI-H226
# HOP-62 = system: HOP-62
# SK-MEL-5 = system: SK-MEL-5
# UACC-257 = system: UACC-257
# A549 = system: A549
# Malme-3M = system: Malme-3M
# SK-OV-3 = system: SK-OV-3
# UACC-62 = system: UACC-62
# A498 = system: A498
# LOX IMVI = system: LOX IMVI
# NCI-H522 = system: NCI-H522
# EKVX = system: EKVX
# UO-31 = system: UO-31
# 786-0 = system: 786-0
# TK-10 = system: TK-10
# LXFL 529 = system: LXFL 529
# SR = system: SR
# ACHN = system: ACHN
# M14 = system: M14
structure (smiles),measurement,setting,value
S=P1(Sc2ccccc2)Oc2ccc3ccccc3c2-c2c(ccc3ccccc23)O1,GI50,HOP-18,> 92.5 µM (inactive)
same,GI50,SNB-19,> 100 µM (inactive)
same,GI50,KM12,> 100 µM (inactive)
same,GI50,OVCAR-8,> 100 µM (inactive)
same,GI50,U-251,> 95.5 µM (inactive)
same,GI50,SK-MEL-2,> 100 µM (inactive)
same,GI50,HOP-92,> 100 µM (inactive)
same,GI50,CCRF-CEM,> 100 µM (inactive)
same,GI50,HCC 2998,> 100 µM (inactive)
same,GI50,NCI-H460,> 100 µM (inactive)
same,GI50,KM-20L2,67.1 µM (inactive)
same,GI50,SF-539,> 100 µM (inactive)
same,GI50,OVCAR-5,> 100 µM (inactive)
same,GI50,MOLT-4,> 82.6 µM (inactive)
same,GI50,DMS-114,> 58.6 µM (inactive)
same,GI50,COLO 205,> 100 µM (inactive)
same,GI50,MCF7,71.8 µM (inactive)
same,GI50,XF498,> 100 µM (inactive)
same,GI50,K562,80.7 µM (inactive)
same,GI50,OVCAR-3,70 µM (inactive)
same,GI50,IGROV-1,> 100 µM (inactive)
same,GI50,SNB-75,> 100 µM (inactive)
same,GI50,RXF 393,> 83 µM (inactive)
same,GI50,SN12C,> 100 µM (inactive)
same,GI50,HCT-15,> 80.4 µM
same,GI50,SF-268,> 100 µM (inactive)
same,GI50,HCT-116,> 100 µM (inactive)
same,GI50,M19-MEL,> 100 µM (inactive)
same,GI50,HT-29,51.5 µM (inactive)
same,GI50,DMS-273,> 100 µM (inactive)
same,GI50,RPMI-8226,> 100 µM (inactive)
same,GI50,SF-295,> 100 µM (inactive)
same,GI50,OVCAR-4,> 100 µM (inactive)
same,GI50,CAKI-1,> 83.9 µM (inactive)
same,GI50,HL-60,> 77.4 µM (inactive)
same,GI50,SW-620,> 100 µM (inactive)
same,GI50,SNB-78,> 100 µM (inactive)
same,GI50,DLD-1,> 100 µM (inactive)
same,GI50,NCI-H23,> 100 µM (inactive)
same,GI50,SK-MEL-28,> 78.5 µM (inactive)
same,GI50,NCI/ADR-RES,> 100 µM (inactive)
same,GI50,NCI-H226,> 100 µM (inactive)
same,GI50,HOP-62,> 100 µM (inactive)
same,GI50,SK-MEL-5,> 100 µM (inactive)
same,GI50,UACC-257,> 100 µM (inactive)
same,GI50,A549,> 100 µM (inactive)
same,GI50,Malme-3M,> 100 µM (inactive)
same,GI50,SK-OV-3,> 100 µM (inactive)
same,GI50,UACC-62,> 100 µM (inactive)
same,GI50,A498,> 84.7 µM (inactive)
same,GI50,LOX IMVI,> 79.6 µM (inactive)
same,GI50,NCI-H522,49.9 µM (inactive)
same,GI50,EKVX,> 100 µM (inactive)
same,GI50,UO-31,> 100 µM (inactive)
O=NN(CCCl)C(=O)N[C@H]1CC[C@H](CC(=O)O)CC1,GI50,HOP-18,> 78.7 µM (inactive)
same,GI50,SNB-19,59.3 µM (inactive)
same,GI50,KM12,> 100 µM (inactive)
same,GI50,OVCAR-8,> 100 µM (inactive)
same,GI50,U-251,33.2 µM (inactive)
same,GI50,SK-MEL-2,> 100 µM (inactive)
same,GI50,HOP-92,> 100 µM (inactive)
same,GI50,CCRF-CEM,21.1 µM (inactive)
same,GI50,HCC 2998,> 100 µM (inactive)
same,GI50,NCI-H460,45.2 µM (inactive)
same,GI50,KM-20L2,> 46.5 µM (inactive)
same,GI50,SF-539,26.1 µM (inactive)
same,GI50,OVCAR-5,> 100 µM (inactive)
same,GI50,MOLT-4,11.9 µM (inactive)
same,GI50,786-0,44 µM (inactive)
same,GI50,DMS-114,61.9 µM (inactive)
same,GI50,COLO 205,> 100 µM (inactive)
same,GI50,MCF7,> 100 µM (inactive)
same,GI50,XF498,> 100 µM (inactive)
same,GI50,K562,60.3 µM (inactive)
same,GI50,OVCAR-3,> 100 µM (inactive)
same,GI50,IGROV-1,> 100 µM (inactive)
same,GI50,SNB-75,50.4 µM (inactive)
same,GI50,RXF 393,> 100 µM (inactive)
same,GI50,SN12C,66.8 µM (inactive)
same,GI50,HCT-15,> 100 µM
same,GI50,TK-10,> 100 µM (inactive)
same,GI50,LXFL 529,> 100 µM (inactive)
same,GI50,SF-268,18.5 µM (inactive)
same,GI50,HCT-116,> 100 µM (inactive)
same,GI50,M19-MEL,> 100 µM (inactive)
same,GI50,HT-29,> 100 µM (inactive)
same,GI50,DMS-273,> 100 µM (inactive)
same,GI50,RPMI-8226,33.1 µM (inactive)
same,GI50,SF-295,34.8 µM (inactive)
same,GI50,OVCAR-4,> 100 µM (inactive)
same,GI50,CAKI-1,> 100 µM (inactive)
same,GI50,HL-60,29.7 µM (inactive)
same,GI50,SW-620,> 69.2 µM (inactive)
same,GI50,SNB-78,> 100 µM (inactive)
same,GI50,DLD-1,> 100 µM (inactive)
same,GI50,NCI-H23,> 89.1 µM (inactive)
same,GI50,SK-MEL-28,> 100 µM (inactive)
same,GI50,NCI/ADR-RES,> 100 µM (inactive)
same,GI50,NCI-H226,> 100 µM (inactive)
same,GI50,HOP-62,> 94.6 µM (inactive)
same,GI50,SK-MEL-5,> 100 µM (inactive)
same,GI50,UACC-257,> 100 µM (inactive)
same,GI50,SR,32.2 µM (inactive)
same,GI50,ACHN,> 100 µM (inactive)
same,GI50,A549,87.3 µM (inactive)
same,GI50,Malme-3M,> 82.2 µM (inactive)
same,GI50,SK-OV-3,> 100 µM (inactive)
same,GI50,UACC-62,15.4 µM (inactive)
same,GI50,A498,> 100 µM (inactive)
same,GI50,LOX IMVI,22.1 µM (inactive)
same,GI50,NCI-H522,28 µM (inactive)
same,GI50,M14,> 100 µM (inactive)
same,GI50,EKVX,> 46.5 µM (inactive)
same,GI50,UO-31,> 100 µM (inactive)
C/C=C/C=C\C(=O)C1c2cccc(O)c2C(=O)c2c(O)cc(C)cc21 (stereo not drawn),GI50,HOP-18,1.88 µM (inactive)
same,GI50,SNB-19,0.442 µM (active)
same,GI50,KM12,0.425 µM (active)
same,GI50,OVCAR-8,1.81 µM (inactive)
same,GI50,U-251,0.446 µM (active)
same,GI50,SK-MEL-2,1.01 µM (active)
same,GI50,HOP-92,1.39 µM (inactive)
same,GI50,CCRF-CEM,1.27 µM (inactive)
same,GI50,HCC 2998,0.306 µM (active)
same,GI50,NCI-H460,0.406 µM (active)
same,GI50,KM-20L2,1.98 µM (inactive)
same,GI50,SF-539,0.432 µM (active)
same,GI50,OVCAR-5,1.82 µM (inactive)
same,GI50,MOLT-4,2.92 µM (inactive)
same,GI50,786-0,2.03 µM (inactive)
same,GI50,DMS-114,0.383 µM (active)
same,GI50,COLO 205,1.64 µM (inactive)
same,GI50,XF498,0.232 µM (active)
same,GI50,K562,0.356 µM (active)
same,GI50,OVCAR-3,1.02 µM (active)
same,GI50,IGROV-1,1.57 µM (inactive)
same,GI50,SNB-75,1.29 µM (inactive)
same,GI50,RXF 393,1.37 µM (inactive)
same,GI50,SN12C,2.33 µM (inactive)
same,GI50,HCT-15,1.76 µM
same,GI50,TK-10,1.7 µM (inactive)
same,GI50,SF-268,0.705 µM (active)
same,GI50,HCT-116,1.52 µM (inactive)
same,GI50,M19-MEL,0.828 µM (active)
same,GI50,HT-29,2.06 µM (inactive)
same,GI50,DMS-273,1.65 µM (inactive)
same,GI50,RPMI-8226,2.14 µM (inactive)
same,GI50,SF-295,0.957 µM (active)
same,GI50,OVCAR-4,1.7 µM (inactive)
same,GI50,CAKI-1,2.08 µM (inactive)
same,GI50,HL-60,0.294 µM (active)
same,GI50,SW-620,1.19 µM (inactive)
same,GI50,SNB-78,1.65 µM (inactive)
same,GI50,DLD-1,1.9 µM (inactive)
same,GI50,NCI-H23,1.76 µM (inactive)
same,GI50,SK-MEL-28,1.69 µM (inactive)
same,GI50,NCI-H226,1.11 µM (active)
same,GI50,HOP-62,2.04 µM (inactive)
same,GI50,SK-MEL-5,1.39 µM (inactive)
same,GI50,UACC-257,1.83 µM (inactive)
same,GI50,ACHN,1.35 µM (inactive)
same,GI50,A549,0.719 µM (active)
same,GI50,Malme-3M,1.68 µM (inactive)
same,GI50,SK-OV-3,1.43 µM (inactive)
same,GI50,A498,2.74 µM (inactive)
same,GI50,LOX IMVI,1.79 µM (inactive)
same,GI50,NCI-H522,1.66 µM (inactive)
same,GI50,EKVX,3.38 µM (inactive)
same,GI50,UO-31,1.71 µM (inactive)
